target: T1, CXCR7 (Homo sapiens, UniProt P25106); experiment: PathHunter CHO-K1 CXCR7 b-arrestin recruitment assay (CXCR7 agonistic activity); type: cell-based; conditions: PathHunter CHO-K1 CXCR7 b-arrestin cell line
T1 construct: host or cells: CHO-K1 (PathHunter CHO-K1 CXCR7 b-arrestin cell line, stably transfected)
Procedure, shortened: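 Stable CHO-K1 line with C-terminally ProLink-tagged CXCR7 and β-arrestin 2–EA fusion; β-arrestin recruitment restores β-gal activity, read by chemiluminescence after 1 h RT detection. Cells seeded 24 h, starved in OPTIMEM 3–4 h, exposed to compounds 90 min at 37 °C in HBSS/HEPES/BSA. Geometric-mean EC50 from repeated measurements.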

T1 sequence (P25106 whole entry): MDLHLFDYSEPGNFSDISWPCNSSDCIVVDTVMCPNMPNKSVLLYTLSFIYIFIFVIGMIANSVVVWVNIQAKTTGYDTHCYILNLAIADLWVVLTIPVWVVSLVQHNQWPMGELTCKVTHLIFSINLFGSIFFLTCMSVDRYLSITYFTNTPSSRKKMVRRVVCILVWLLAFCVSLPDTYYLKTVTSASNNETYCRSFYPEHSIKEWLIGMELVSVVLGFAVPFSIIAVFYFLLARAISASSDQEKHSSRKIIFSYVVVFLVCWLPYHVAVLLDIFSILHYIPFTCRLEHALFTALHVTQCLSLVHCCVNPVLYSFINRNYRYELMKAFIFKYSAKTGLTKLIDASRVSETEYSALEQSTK
T1 sequence (P32121 whole entry partner): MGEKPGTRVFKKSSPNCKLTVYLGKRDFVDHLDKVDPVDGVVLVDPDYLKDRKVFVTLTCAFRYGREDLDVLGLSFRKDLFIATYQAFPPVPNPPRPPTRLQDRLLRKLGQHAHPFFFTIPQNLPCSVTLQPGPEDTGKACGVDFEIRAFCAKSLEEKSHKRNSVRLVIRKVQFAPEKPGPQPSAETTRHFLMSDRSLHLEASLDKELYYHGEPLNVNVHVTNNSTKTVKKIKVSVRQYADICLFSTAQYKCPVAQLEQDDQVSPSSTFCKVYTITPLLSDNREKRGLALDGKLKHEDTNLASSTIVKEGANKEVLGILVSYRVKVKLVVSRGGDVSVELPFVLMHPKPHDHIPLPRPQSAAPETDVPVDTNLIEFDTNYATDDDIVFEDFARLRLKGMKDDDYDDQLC

EC50 [nM]	SMILES
9	CCN1CCc2c(CCC(=O)N(CCN(C)C)Cc3ccccc3C(F)(F)F)cccc2C1 [compound 157, N-(2-Dimethylamino-ethyl)-3-(2-ethyl-1,2,3,4-tetrahydro-isoquinolin-5-yl)-N-(2-trifluoromethyl-benzyl)-propionamide]
2	CN(C)CCN(Cc1ccccc1C(F)(F)F)C(=O)CCc1cccc2c1CCN(CC1CC1)C2 [compound 158, 3-(2-Cyclopropylmethyl-1,2,3,4-tetrahydro-isoquinolin-5-yl)-N-(2-dimethylamino-ethyl)-N-(2-trifluoromethyl-benzyl)-propionamide]
72	CCN1CCc2c(CCC(=O)N(Cc3ccccc3C(F)(F)F)C3CCN(C)CC3)cccc2C1 [compound 159]
15	CN1CCC(N(Cc2ccccc2C(F)(F)F)C(=O)CCc2cccc3c2CCN(CC2CC2)C3)CC1 [compound 160, 3-(2-Cyclopropylmethyl-1,2,3,4-tetrahydro-isoquinolin-5-yl)-N-(1-methyl-piperidin-4-yl)-N-(2-trifluoromethyl-benzyl)-propionamide]
4	CN(C)CCN(Cc1ccccc1)C(=O)CCc1cccc2c1CCN(CC1CC1)C2 [compound 161, N-Benzyl-3-(2-cyclopropylmethyl-1,2,3,4-tetrahydro-isoquinolin-5-yl)-N-(2-dimethylamino-ethyl)-propionamide]
17	CC(C)CCN(Cc1ccccc1)C(=O)COc1cccc2c1CCN(CC1CC1)C2 [compound 163, N-Benzyl-2-(2-cyclopropylmethyl-1,2,3,4-tetrahydro-isoquinolin-5-yloxy)-N-(3-methyl-butyl)-acetamide]
69	CN(C)CCN(Cc1ccccc1)C(=O)CNc1cccc2c1CN(C)CC2 [compound 182]
140	CC(C)CCN(Cc1ccccc1)C(=O)CNc1cccc2c1CN(C)CC2 [compound 183]
270	CN(C)CCN(Cc1ccccc1)C(=O)CNc1cccc2c1C(=O)N(C)CC2 [compound 184]
91	CC(C)N1CCc2cccc(NCC(=O)N(CCN(C)C)Cc3ccccc3)c2C1 [compound 186]
34	CN(C)CCN(Cc1ccccc1)C(=O)CNc1cccc2c1CN(CC1CC1)CC2 [compound 187, N-Benzyl-2-(2-cyclopropylmethyl-1,2,3,4-tetrahydro-isoquinolin-8-ylamino)-N-(2-dimethylamino-ethyl)-acetamide]
37	CC(C)CN1CCc2cccc(NCC(=O)N(CCN(C)C)Cc3ccccc3)c2C1 [compound 189, N-Benzyl-N-(2-dimethylamino-ethyl)-2-(2-isobutyl-1,2,3,4-tetrahydro-isoquinolin-8-ylamino)-acetamide]
59	CC(C)C(=O)N1CCc2cccc(NCC(=O)N(CCN(C)C)Cc3ccccc3)c2C1 [compound 191]
38	CC(C)OC(=O)N1CCc2cccc(NCC(=O)N(CCN(C)C)Cc3ccccc3)c2C1 [compound 192, 8-({[Benzyl-(2-dimethylamino-ethyl)-carbamoyl]-methyl}-amino)-3,4-dihydro-1H-isoquinoline-2-carboxylic acid isopropyl ester]
48	CN(C)CCN(Cc1ccccc1)C(=O)CNc1cccc2c1CN(Cc1ccccc1)CC2 [compound 193, N-Benzyl-2-(2-benzyl-1,2,3,4-tetrahydro-isoquinolin-8-ylamino)-N-(2-dimethylamino-ethyl)-acetamide]
13	CN(C)CCN(Cc1ccccc1)C(=O)CNc1cccc2c1CN(CC1CCCCC1)CC2 [compound 194, N-Benzyl-2-(2-cyclohexylmethyl-1,2,3,4-tetrahydro-isoquinolin-8-ylamino)-N-(2-dimethylamino-ethyl)-acetamide]
12	CN(C)CCN(Cc1ccccc1)C(=O)CNc1cccc2c1CN(C(=O)c1ccccc1)CC2 [compound 195, 2-(2-Benzoyl-1,2,3,4-tetrahydro-isoquinolin-8-ylamino)-N-benzyl-N-(2-dimethylamino-ethyl)-acetamide]

EC50 [nM]	SMILES
264	CCN1Cc2c(NCC(=O)N(CCN(C)C)Cc3ccccc3Cl)cccc2C(C)(C)C1 [compound 196]
257	CN(C)CCN(Cc1ccccc1Cl)C(=O)CNc1cccc2c1CN(CC1CC1)CC2(C)C [compound 197]
388	CCN1Cc2c(NCC(=O)N(CCN(C)C)Cc3ccccc3C(F)(F)F)cccc2C(C)(C)C1 [compound 198]
255	CN(C)CCN(Cc1ccccc1C(F)(F)F)C(=O)CNc1cccc2c1CN(CC1CC1)CC2(C)C [compound 199]
235	CN1CCC(N(Cc2ccccc2C(F)(F)F)C(=O)CNc2cccc3c2CN(CC2CC2)CC3(C)C)CC1 [compound 200]
276	CCN1CCc2cccc(NCC(=O)N(Cc3ccccc3)C3CCNCC3)c2C1 [compound 377]
3	O=C(CNc1cccc2c1CCN(CC1CC1)C2)N(Cc1ccccc1C(F)(F)F)C[C@@H]1CCNC1 [compound 379]
6	O=C(CNc1cccc2c1CCN(CC1CC1)C2)N(Cc1ccccc1C(F)(F)F)C[C@H]1CCNC1 [compound 380]
51	CNCCN(Cc1ccccc1C(F)(F)F)C(=O)CNc1cccc2c1CC(=O)N(CC(C)C)C2 [compound 383]
4	CNCCN(Cc1ccccc1C(F)(F)F)C(=O)CNc1cccc2c1CN(CC1CC1)CC2 [compound 384, 2-(2-Cyclopropylmethyl-1,2,3,4-tetrahydro-isoquinolin-8-ylamino)-N-(2-methylamino-ethyl)-N-(2-trifluoromethyl-benzyl)-acetamide]
12	CCCC(=O)N1CCc2c(cccc2NCC(=O)N(CCNC)Cc2ccccc2C(F)(F)F)C1 [compound 386, 2-(2-Butyryl-1,2,3,4-tetrahydro-isoquinolin-5-ylamino)-N-(2-methylamino-ethyl)-N-(2-trifluoromethyl-benzyl)-acetamide]
12	CNCCN(Cc1ccccc1C(F)(F)F)C(=O)CNc1cccc2c1CCN(C(=O)C(C)C)C2 [compound 387, 2-(2-Isobutyryl-1,2,3,4-tetrahydro-isoquinolin-5-ylamino)-N-(2-methylamino-ethyl)-N-(2-trifluoromethyl-benzyl)-acetamide]
20	CNCCN(Cc1ccccc1C(F)(F)F)C(=O)CNc1cccc2c1CCN(C(=O)C1CCC1)C2 [compound 389, 2-(2-Cyclobutanecarbonyl-1,2,3,4-tetrahydro-isoquinolin-5-ylamino)-N-(2-methylamino-ethyl)-N-(2-trifluoromethyl-benzyl)-acetamide]
83	CNCCN(Cc1ccccc1C(F)(F)F)C(=O)CNc1cccc2c1CCN(C(=O)C(C)(C)C)C2 [compound 390]
49	CNCCN(Cc1ccccc1C(F)(F)F)C(=O)CNc1cccc2c1CCN(C(=O)CC(C)C)C2 [compound 391, N-(2-Methylamino-ethyl)-2-[2-(3-methyl-butyryl)-1,2,3,4-tetrahydro-isoquinolin-5-ylamino]-N-(2-trifluoromethyl-benzyl)-acetamide]
110	CNCCN(Cc1ccccc1C(F)(F)F)C(=O)CNc1cccc2c1CCN(C(=O)CC(C)(C)C)C2 [compound 393]
9	CNCCN(Cc1ccccc1C(F)(F)F)C(=O)CNc1cccc2c1CCN(C(=O)OC)C2 [compound 394, 5-({[(2-Methylamino-ethyl)-(2-trifluoromethyl-benzyl)-carbamoyl]-methyl}-amino)-3,4-dihydro-1H-isoquinoline-2-carboxylic acid methyl ester]

SMILES	EC50 [nM]
CN(C)CCN(Cc1ccccc1)C(=O)COc1cccc2c1CCN(C)C2 [compound 164]	84
CCN1CCc2c(cccc2OCC(=O)N(CCN(C)C)Cc2ccccc2)C1 [compound 165]	61
CN(C)CCN(Cc1ccccc1)C(=O)COc1cccc2c1CCN(CC1CC1)C2 [compound 166, N-Benzyl-2-(2-cyclopropylmethyl-1,2,3,4-tetrahydro-isoquinolin-5-yloxy)-N-(2-dimethylamino-ethyl)-acetamide]	6
CC(C)CN1CCc2c(cccc2OCC(=O)N(CCN(C)C)Cc2ccccc2)C1 [compound 168, N-Benzyl-N-(2-dimethylamino-ethyl)-2-(2-isobutyl-1,2,3,4-tetrahydro-isoquinolin-5-yloxy)-acetamide]	20
CCC(=O)N1CCc2c(cccc2OCC(=O)N(CCN(C)C)Cc2ccccc2)C1 [compound 169, N-Benzyl-N-(2-dimethylamino-ethyl)-2-(2-propionyl-1,2,3,4-tetrahydro-isoquinolin-5-yloxy)-acetamide]	42
CC(C)C(=O)N1CCc2c(cccc2OCC(=O)N(CCN(C)C)Cc2ccccc2)C1 [compound 170]	74
CCN1CCc2c(cccc2OCC(=O)N(CCN(C)C)Cc2ccccc2Cl)C1 [compound 171, N-(2-Chloro-benzyl)-N-(2-dimethylamino-ethyl)-2-(2-ethyl-1,2,3,4-tetrahydro-isoquinolin-5-yloxy)-acetamide]	18
CN(C)CCN(Cc1ccccc1Cl)C(=O)COc1cccc2c1CCN(CC1CC1)C2 [compound 172, N-(2-Chloro-benzyl)-2-(2-cyclopropylmethyl-1,2,3,4-tetrahydro-isoquinolin-5-yloxy)-N-(2-dimethylamino-ethyl)-acetamide]	2
CCN1CCc2c(cccc2OCC(=O)N(CCN(C)C)Cc2ccccc2C(F)(F)F)C1 [compound 173, N-(2-Dimethylamino-ethyl)-2-(2-ethyl-1,2,3,4-tetrahydro-isoquinolin-5-yloxy)-N-(2-trifluoromethyl-benzyl)-acetamide]	5
CN(C)CCN(Cc1ccccc1C(F)(F)F)C(=O)COc1cccc2c1CCN(CC1CC1)C2 [compound 174, 2-(2-Cyclopropylmethyl-1,2,3,4-tetrahydro-isoquinolin-5-yloxy)-N-(2-dimethylamino-ethyl)-N-(2-trifluoromethyl-benzyl)-acetamide]	0.8

From patent publication US9920010B2, “CXCR7 receptor modulators” (IDORSIA PHARMACEUTICALS LTD, priority 2013, dated 2018)
